Test: In vitro liver microsome experiment (glucuronidation with UDPGA, UPLC-MS/MS detection)
Type: in vitro ADME
Settings: pooled human liver microsomes, alamethicin, 37° C., incubation 0 min and 6 h
Description: In Vitro Liver Microsome Experiment
Experimental group: 136 μL of 50 mM Tris buffer was added to a 1.5 mL centrifuge tube, added with 20 μL of 100 mM aqueous D-glucaro-1,4-lactone solution, 10 μL of 10 mM aqueous magnesium chloride (MgCl2) solution, 10 μL of 40 mg/mL pooled human liver microsomes, and 2 μL of 50 mg/mL alamethicin, respectively, and preincubated on ice for 15 min; 2 μL of 2 mg/mL substrate (3-PBA) was added, and preincubated with 100 mM uridine diphosphate glucuronic acid (UDPGA) solution for 5 min at 37° C.; 20 μL of preincubated UDPGA solution was added to the reaction system to start the reaction, and incubation proceeded. At 0 min and 6 h, 200 μL of glacial acetonitrile was added to the reaction system to terminate the reaction, respectively. The reaction system was vortexed for 1 min and centrifuged at 13,000 r/min for 10 min at 4° C. All supernatants were put in a test tube, nitrogen-blown at 37° C., and reconstituted with 200 μL of methanol. The samples were analyzed and detected by UPLC-MS/MS. The difference between the blank group and the experimental group was only that 3-PBA was not added, and the difference between the control group and the experimental group was only that UDPGA was not added. […]

Compound	phase II metabolism (formation of glucuronic acid conjugate) detected by UPLC-MS/MS
O=C(O)c1cccc(Oc2ccccc2)c1 [3-PBA, 3-phenoxybenzoic acid]	underwent phase II metabolic reaction
CC1(C)Cc2cccc(O)c2O1 [carbofuran phenol]	carbofuran phenol-glucuronic acid conjugate was detected

Reference: patent US12600741B2, “3-phenoxybenzoic acid-glucuronic acid conjugate, and preparation method and use thereof” (Shanxi Medical University, priority 2023, dated 2026)
